This is an account of results in patent publication US20080269248A1, “Tartrate and Malate Salts of Trans-1-((1R,3S)-6-Chloro-3-Phenylindan-1-Yl)-3,3-Dimethylpiperazine” (H. Lundbeck A/S, priority 2005, published 2008).

One data set in a line: solubility of the salts. The data set is classed as physicochemical.
A further data set has as its target dopamine D2 receptors (Homo sapiens, UniProt P14416). The conditions noted are these: as described in PCT/DK04/000546; cited from earlier work.
For another data set, the target named is dopamine D1 receptors (Homo sapiens, UniProt P21728). The conditions noted are these: as described in PCT/DK04/000546; cited from earlier work.
Sequence of dopamine D1 receptors (P21728 whole entry): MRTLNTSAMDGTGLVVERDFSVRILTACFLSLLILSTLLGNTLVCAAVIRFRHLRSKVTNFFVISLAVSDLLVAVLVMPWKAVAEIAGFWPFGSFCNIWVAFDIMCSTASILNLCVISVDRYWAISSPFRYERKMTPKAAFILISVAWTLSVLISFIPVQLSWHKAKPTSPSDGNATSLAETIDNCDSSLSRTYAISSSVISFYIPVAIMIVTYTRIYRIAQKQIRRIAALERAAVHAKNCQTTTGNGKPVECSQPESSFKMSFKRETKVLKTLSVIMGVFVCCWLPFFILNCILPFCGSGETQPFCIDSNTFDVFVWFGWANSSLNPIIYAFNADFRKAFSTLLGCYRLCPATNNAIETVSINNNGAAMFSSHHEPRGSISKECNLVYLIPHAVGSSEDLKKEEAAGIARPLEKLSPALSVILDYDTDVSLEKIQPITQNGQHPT
For another data set, the target named is CYP2D6 (Homo sapiens, UniProt P10635). Conditions: as described in PCT/DK04/000546; cited from earlier work.
Sequence of CYP2D6 (P10635 whole entry): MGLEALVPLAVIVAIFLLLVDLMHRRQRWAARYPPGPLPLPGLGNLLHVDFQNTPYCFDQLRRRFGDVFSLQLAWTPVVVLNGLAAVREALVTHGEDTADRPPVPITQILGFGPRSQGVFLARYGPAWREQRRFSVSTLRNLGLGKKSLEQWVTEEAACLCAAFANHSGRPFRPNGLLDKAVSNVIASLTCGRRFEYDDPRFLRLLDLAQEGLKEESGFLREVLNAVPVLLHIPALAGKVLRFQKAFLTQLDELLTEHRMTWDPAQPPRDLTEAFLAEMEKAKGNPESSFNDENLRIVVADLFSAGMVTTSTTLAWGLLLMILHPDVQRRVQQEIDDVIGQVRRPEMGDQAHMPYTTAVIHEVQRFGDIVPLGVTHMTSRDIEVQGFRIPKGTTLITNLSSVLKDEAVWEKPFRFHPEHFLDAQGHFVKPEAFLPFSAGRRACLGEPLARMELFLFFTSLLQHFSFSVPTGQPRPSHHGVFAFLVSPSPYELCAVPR
In the next data set the target is DA D2 receptors (Homo sapiens, UniProt P14416). Conditions: as described in PCT/DK04/000546; cited from earlier work.
Sequence of DA D2 receptors (P14416 whole entry): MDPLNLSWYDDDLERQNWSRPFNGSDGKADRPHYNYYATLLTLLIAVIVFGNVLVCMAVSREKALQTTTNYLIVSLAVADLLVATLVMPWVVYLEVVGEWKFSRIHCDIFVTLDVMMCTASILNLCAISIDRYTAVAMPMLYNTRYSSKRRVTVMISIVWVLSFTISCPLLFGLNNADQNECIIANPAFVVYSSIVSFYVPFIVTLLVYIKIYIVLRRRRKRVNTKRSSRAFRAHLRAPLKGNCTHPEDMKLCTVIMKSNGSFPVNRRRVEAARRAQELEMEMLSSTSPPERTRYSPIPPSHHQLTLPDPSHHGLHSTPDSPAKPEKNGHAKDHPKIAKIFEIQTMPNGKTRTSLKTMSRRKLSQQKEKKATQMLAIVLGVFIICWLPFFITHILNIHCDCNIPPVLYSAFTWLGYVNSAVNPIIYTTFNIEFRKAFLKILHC
Data set [1] has as its target dopamine (DA) D1 receptors (Homo sapiens, UniProt P21728). Conditions: as described in PCT/DK04/000546; cited from earlier work.
The target of data set [2] is serotonin 5-HT2a receptors (Homo sapiens, UniProt P28223). Conditions: as described in PCT/DK04/000546; cited from earlier work.
Sequence of serotonin 5-HT2a receptors (P28223 whole entry): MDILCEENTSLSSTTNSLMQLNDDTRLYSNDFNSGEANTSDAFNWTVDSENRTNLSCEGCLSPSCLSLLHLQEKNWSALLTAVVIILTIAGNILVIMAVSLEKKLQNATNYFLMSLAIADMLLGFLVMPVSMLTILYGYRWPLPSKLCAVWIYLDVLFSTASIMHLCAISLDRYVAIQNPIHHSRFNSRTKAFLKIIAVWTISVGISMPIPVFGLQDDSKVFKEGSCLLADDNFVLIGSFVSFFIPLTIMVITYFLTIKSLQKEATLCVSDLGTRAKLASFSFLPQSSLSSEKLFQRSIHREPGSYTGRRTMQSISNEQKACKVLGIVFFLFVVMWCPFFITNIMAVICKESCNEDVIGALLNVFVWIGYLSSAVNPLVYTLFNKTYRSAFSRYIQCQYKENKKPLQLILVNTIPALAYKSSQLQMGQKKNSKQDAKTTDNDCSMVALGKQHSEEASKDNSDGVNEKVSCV
The test system of data set [3] is pigs sensitized to haloperidol. As to the kind of experiment: dystonia in pigs sensitized to haloperidol. The format is in vivo.
For data set [4] the following is noted: rabbit model; as described in PCT/DK04/000546; cited from earlier work.
The next data set concerns alfal adrenoceptors. Conditions: as described in PCT/DK04/000546; cited from earlier work.

Sequence of dopamine D2 receptors (P14416 whole entry): as the sequence (P14416 whole entry) above
Sequence of dopamine (DA) D1 receptors (P21728 whole entry): as the sequence (P21728 whole entry) above

`CC1(C)CN([C@@H]2C[C@@H](c3ccccc3)c3ccc(Cl)cc32)CCN1.CC1(C)CN([C@@H]2C[C@@H](c3ccccc3)c3ccc(Cl)cc32)CCN1.O=C(O)C[C@H](O)C(=O)O` (relative stereo) [malate salt, trans-1-((1R,3S)-6-chloro-3-phenylindan-1-yl)-3,3-dimethylpiperazinium L-malate]: the solubility in the data set “solubility of the salts” worked out at 800 µg/mL.

As to `CC1(C)CN([C@@H]2C[C@@H](c3ccccc3)c3ccc(Cl)cc32)CCN1` [Compound I, trans-1-((1R,3S)-6-chloro-3-phenylindan-1-yl)-3,3-dimethylpiperazine], the “functional activity at dopamine D2 receptors” value on dopamine D2 receptors is “antagonist”. Moreover, the “functional activity at dopamine D1 receptors” value on dopamine D1 receptors was “antagonist”. The “inhibition of CYP2D6” value on CYP2D6 is listed as “relatively weak inhibitor”. Also, the “affinity for DA D2 receptors” value at DA D2 receptors is recorded as “high affinity”. Moreover, the “affinity for dopamine (DA) D1 receptors” value in data set [1] was “high affinity”. Also, the “functional activity at serotonin 5-HT2a receptors” value in data set [2] is “antagonist”. Besides, the “induction of dystonia (EPS liability)” value in data set [3] is “did not induce dystonia”. Moreover, the “effect on the QT interval” value in data set [4] is given as “relatively low effect”. Also, in the data set on alfal adrenoceptors, the “affinity for alfal adrenoceptors” value is “high affinity”.

The solubility is the dissolved amount per volume that the medium holds.
